The values that follow come from a melting point compilation (Tetko et al.; mined from patent text by program, amines drawn as free bases though some values may be those of a salt).

Each structure is given as a SMILES string.

For `CS(=O)(=O)NS(=O)(=O)c1cccc(NC(=O)NC2N=C(c3ccccc3F)c3ccccc3N(CC(=O)N3CC4CCC(CC4)C3)C2=O)c1` (racemic), the melting point – broadly, the temperature of the solid-liquid transition – is > 250 °C.

In turn, `CCCCCCC1=C(Br)C(O)(CO)NC1=O` (stereo not drawn) gave a melting point of 134 to 135 °C.

In turn, `COc1cc(OC)cc(C(=O)NCCCSc2ccncc2)c1` gave a melting point of 110 to 111 °C.

`Cc1c(C)c2c(c(C)c1NC(=O)CC(C)(C)C)C(N1CCCC1)C(C)(C)O2` (stereo not drawn) yielded a melting point of 197 to 198 °C.

`O=C(Nc1cccc(-n2ccnc2)c1)c1csc(-c2ccccc2)n1` displayed a melting point of 131 to 134 °C.

`CC/C(=C(\c1ccc(/C=C/C(=O)O)cc1)c1ccc(OC(=O)COC)cc1)c1ccccc1` showed a melting point of 190 to 191 °C.

In the case of `CN(C)CCOC(c1ccccc1)c1ccc(C(=O)NCCCCn2cnc3c(N)nc4ccccc4c32)cc1` (stereo not drawn), the melting point lay within 110 to 114 °C.

For `CS(=O)(=O)c1ccc(-c2cnn(-c3cccc(Cl)c3)c(=O)c2OCc2ccccc2)cc1`, the melting point was in the range of 110 to 113 °C.

With `NC(=O)c1[nH]cnc1OC(=O)c1ccccc1C(=O)OCc1ccccc1`, the melting point fell in the range of 122 to 124 °C.

`CC1C(=O)N(c2cccc(Cl)c2)N=C1N` (stereo not drawn) returned a melting point of 138 °C.

In the case of `C=C(C(=O)O)c1ccc(-c2ccccc2)c(F)c1`, the melting point lay in the range of 169 to 172 °C.

`O=S(=O)(c1ccccc1)N1CCC(C(O)(c2ccc(F)c(F)c2)c2ccc(F)c(F)c2)CC1` yielded a melting point of 152 to 154 °C.

`CCCN1CC=C(c2cccc3[nH]ccc23)CC1` yielded a melting point of 105 °C.

Compound `O=C1NC(=S)SC1=Cc1ccnc2ccccc12` yielded a melting point of 325 to 328 °C.

`CN(S(C)(=O)=O)S(=O)(=O)N=C=O` displayed a melting point of 140 °C.

`COc1ccc(CCOC(=O)NC(=O)C(c2ccccc2)c2ccccc2)cc1OC` gave a melting point of 144 °C.

The compound `CCCCc1nc(Cl)c(CC(=O)OCC)c(Cc2ccc(-c3ccccc3-c3nnn[nH]3)cc2)n1` gave a melting point of 160 °C.

In turn, `Cc1c(C(=O)Cl)ccc(S(C)(=O)=O)c1-c1ccon1` had a melting point of 85 to 88 °C.

In turn, `COc1ccc(Cl)cc1C(NC(C)=N)(c1ccccc1)c1ccccc1` displayed a melting point of 143 to 145 °C.

`COCCOc1ccc(C#CC2(O)CN3CCC2CC3)c(CO)c1` (stereo not drawn) had a melting point of 98.5 to 100 °C.

For `CS(=O)c1ccc(-c2nn(Cc3cccnc3)c(=O)cc2-c2ccc(Cl)cc2)cc1` (stereo not drawn), the melting point worked out at 155 °C.

In turn, `Cc1cccc(C)c1COc1cc(C(=O)O)cc2c1nc(C)n2C` came in with a melting point of 285 to 286 °C.

Compound `CC(C)c1cccc(C(C)C)c1NS(=O)(=O)CC(=O)NC(c1ccccc1)c1ccccc1` returned a melting point of 166 to 167 °C.

The compound `NS(=O)(=O)c1ccc(C2CCN(c3cc([N+](=O)[O-])ccn3)CC2)cc1` registered a melting point of 215 to 217 °C.

The compound `CCCCCCCCCc1c(Cl)nc(-c2ccc(OC)c(F)c2)nc1Cl` showed a melting point of 59 to 60 °C.

`CCCS(=O)(=O)c1nc[nH]n1`: the melting point was 116 to 117 °C.

The compound `CSCc1cn(C)c2cc(F)ccc2c1=O` registered a melting point of 167 to 169 °C.

Consider `Cn1cc(-c2ccccc2[N+](=O)[O-])cn1`, for which the melting point lay in the range of 41 to 44 °C.

With `CCCC1=C(C#N)C(c2cccc(C#N)c2Br)c2c[nH]nc2N1C` (stereo not drawn), the melting point lay within 218 to 220 °C.

Take `CCCCCCCN(Cc1ccc(C(C)(C)C)cc1)C(Nc1ccc(-c2ccccc2)cc1)=C1C(=O)COC1=O`: the melting point lay in the range of 190 to 192 °C.

Take `CCc1ccc(OCCc2c[nH]cn2)cc1`: the melting point turned out to be 178 °C.

Compound `N#Cc1cnc2n(c1=O)CCCCC2` had a melting point of 125 °C.

Compound `N=C(Nc1ccc2ccncc2c1)c1cccs1` registered a melting point of 178 °C.

`CC1(C2CCC3C4CCC5CC(O)CCC5(C)C4C(OC(=O)CCl)CC32C)OCCO1` (stereo not drawn): the melting point fell in the range of 194 to 202 °C.

As for `COC1=C(OC)C(=O)c2cc(Cl)ccc2C1=O`, the melting point was in the range of 125 to 126 °C.

Consider `CCOC(=O)C(C)Oc1ncn(-c2cccc(Br)c2)n1` (stereo not drawn), for which the melting point lay in the range of 83 to 85 °C.

`COc1ccc(C(=O)c2c(N)sc3c2CCSC3)cc1` displayed a melting point of 178 to 179 °C.

Turning to `COC(=O)c1ccc(NC(=O)C(CC(=O)O)c2ccccc2)cc1` (stereo not drawn), the melting point was 190 °C.

For `CC=Cc1cccc2c(=O)c(C)c(C(=O)O)oc12`, the melting point lay within 224 to 228 °C.

In turn, `COc1cc(CC(=O)O)ccc1NC(=O)Nc1ccccc1C(F)(F)F` returned a melting point of 218 to 220 °C.

As for `CCOC(=O)C(=O)Nc1cc(Cl)c(Cl)c(Cl)c1`, the melting point lay within 148 to 151 °C.

`COC(=O)c1ccc(CN2CCN(CC(C)O)CC2)cc1` (stereo not drawn) came in with a melting point of 63 to 64 °C.

The compound `O=C1C(CCO)Oc2ccccc2N1Cc1cccc(Cl)c1` (stereo not drawn) displayed a melting point of 63 to 67 °C.

Consider `O=C(Nc1ccc(CN2C(=O)[C@H]3CCC[C@H]3Nc3ccccc32)cc1)Oc1ccccc1` (relative stereo), for which the melting point lay in the range of 183 to 184 °C.

In turn, `O=C1N=C(N2CCCCCCC2)SC1=Cc1cccc(-c2ccc(O)c(C34CC5CC(CC(C5)C3)C4)c2)c1` came in with a melting point of 284 to 286 °C.

Regarding `NC(=O)c1cc(N)ccc1SSc1ccc(N)cc1C(N)=O`, the melting point fell in the range of 188 to 190 °C.

Regarding `CCN(C)c1ccc(Cl)nn1`, the melting point lay within 61 to 63 °C.

The compound `COc1cc(Cl)ccc1CC(=O)O` showed a melting point of 100 °C.

Compound `COc1ccc(-c2ocnc2-c2cc(OC)c(N)c(OC)c2)cc1O` had a melting point of 126 to 130 °C.

As for `CN(CSC(C)(C)C)C(=O)Nc1cccc(C(F)(F)F)c1`, the melting point is 96 to 99 °C.

In the case of `CC(C(=O)O)c1ccc(O)c(N)c1` (stereo not drawn), the melting point was 162 °C.

In turn, `COc1ccc(-c2nc(Oc3ccc(C)cc3)ncc2C(=O)N2CCOCC2)cc1OC` displayed a melting point of 152 °C.

In turn, `COC(=O)CN(c1ccc(Cl)cc1C(=O)c1ccccc1F)S(=O)(=O)c1ccc(N)cc1` came in with a melting point of 168 to 170 °C.

Regarding `COc1cc2c(cc1S(=O)(=O)c1ccc(C)cc1)[C@@H](N1CCCC1=O)[C@H](O)C(C)(C)O2` (relative stereo), the melting point was 263 to 265 °C.

As for `N#CC(=CC=Cc1ccccc1)C(=O)O`, the melting point was found to be 196 °C.

As to `Cc1ccc2cc3nc4cccc(Cl)c4c-3[nH]c2c1`, the melting point was 193 to 194 °C.

`CCOC(=O)N1CCN(c2ncnc3[nH]ncc23)CC1`: the melting point lay within 245 to 247 °C.

Compound `NC(=O)c1cc2cc(Cl)ccc2nc1N` showed a melting point of 250 to 251 °C.

`Cc1ccc(C)c(OCc2ccccc2C(=NOC(F)F)C(N)=O)c1` registered a melting point of 153 to 156 °C.

`CCOC(=O)c1cnc2c(nc(C)n2C)c1Cl`: the melting point fell in the range of 85 to 90 °C.

For the compound `CN(C)CC1=C(Nc2ccccc2)CC(C)(C)CC1=O`, the melting point was in the range of 111 to 112 °C.

`Cn1c(C(F)(F)F)ccc(-c2ccc(Cl)cc2F)c1=O` showed a melting point of 103 to 104 °C.

Regarding `COc1ccc2[nH]c(/C=C/C(=O)OCc3ccccc3)cc2c1`, the melting point lay within 155 to 157 °C.

With `CCN1CCCC1CNC(=O)Cc1ccc(-c2ccc3c(=O)c(C(=O)NC)c(C)n(CC)c3n2)s1` (stereo not drawn), the melting point is 250 °C.

In turn, `CCCC(O)P(=O)(O)OCCCN` (stereo not drawn) displayed a melting point of 188 °C.

In the case of `Cn1cc(C(=O)NCc2ccc(Cl)cc2)c(=O)c2ccoc21`, the melting point was 197 to 205 °C.

The compound `COc1ccc2ccccc2c1/C=C/NC=O` gave a melting point of 160 to 162 °C.

`CC(C)CN(C)c1cc(F)cc(C(=O)Nc2ccc(OCCN3CCOCC3)c3ccccc23)c1` had a melting point of 126 to 128 °C.

As for `CC(Oc1ccc(C#N)cc1)c1ccnc2ncnn12` (stereo not drawn), the melting point was in the range of 163 to 164 °C.

Consider `CCCCCCCCCCCC(=O)C(C)(C)C(=O)Nc1c(OC)cc(OC)cc1OC`, for which the melting point lay within 92 to 94 °C.

On to `Cc1cc(C)c2c(n1)N(C(=O)Cl)c1ccccc1N(C)C2=O`, for which the melting point was 205 to 207 °C.

`CN1CCCC(C2=C(C#N)C(c3cccc4nonc34)c3c[nH]nc3N2)C1` (stereo not drawn) yielded a melting point of 228 °C.

`c1ccc(-c2csc(Nc3cc4ccccc4cn3)n2)cc1` gave a melting point of 265 to 267 °C.

Consider `OCc1ccccc1SCc1cc2c(cc1O)CCCO2`, for which the melting point was 140 to 141 °C.

In turn, `COc1cccc(CC(=O)O)c1OCCCc1cn(-c2ccc([N+](=O)[O-])cn2)nc1C(C)C` displayed a melting point of 161 to 162 °C.

Consider `O=C1CCC(c2ccccc2)(c2ccccc2)[C@@H]2CN(C(=O)CC3=CSCSC3)C[C@H]12` (racemic), for which the melting point worked out at 211 °C.

Turning to `CCc1ccc2c(O)c(CO)cnc2c1`, the melting point fell in the range of 180 to 182 °C.

Compound `O=C(O)CCSSc1ccccc1` gave a melting point of 58 °C.

Regarding `COC(=O)c1cc(O)nn1Cc1ccc(Cl)cc1Cl`, the melting point fell in the range of 222 to 223 °C.

For the compound `CCCCn1c(=S)c2c(ncn2CC(C)=O)n(CC)c1=O`, the melting point is 173 to 174 °C.

Regarding `COCCOCCOCC(=O)N(C)c1c(I)c(N)c(I)c(C(=O)O)c1I`, the melting point was in the range of 100 to 109 °C.

In turn, `Cc1nnc(-c2ccnc(NCc3cccc(C(F)(F)F)c3)c2)o1` had a melting point of 141 to 142 °C.

As for `CC(CCCl)C(=O)Nc1cc(C(C)(C)C)no1` (stereo not drawn), the melting point is 135 to 137 °C.

As to `NNC(=O)Cc1c(F)cccc1F`, the melting point was in the range of 177 to 178 °C.

As to `O=C(O)CC(O)(Cn1cncn1)c1ccc(F)cc1F` (stereo not drawn), the melting point was in the range of 185 to 187 °C.

Turning to `CC(=O)Nc1ccc(CC(=O)NCCc2ccc3[nH]cc(CC#N)c3c2)cc1`, the melting point was 188 to 189 °C.

`Cc1csc(C(=O)OC(C)C)c1N` displayed a melting point of 40 °C.

Consider `COC(=O)C(CSSc1ccccc1C(=O)Nc1ccc(S(N)(=O)=O)cc1)NC(C)=O` (stereo not drawn), for which the melting point was in the range of 138 to 140 °C.

`O=C(Nc1cc2ncc(CN3CCCC3)cc2cc1F)c1ccc(-c2ccc(OC(F)(F)F)cc2)cc1` came in with a melting point of 184 to 187 °C.

As for `CON=C(C)c1ccc(N2CC(CO)OC2=O)cc1` (stereo not drawn), the melting point is 149 to 150 °C.

For the compound `COC(=O)c1ccc2cccc3c2c1-c1ccccc1-3`, the melting point is 70 to 71 °C.

The compound `O=C1NC(=O)C(CC#Cc2ccc(Cl)cc2)(S(=O)(=O)c2ccccn2)S1` (stereo not drawn) gave a melting point of 140 to 141 °C.

Turning to `OCc1ccc(O)c(CO)c1CNCCCCCCOCCc1ccco1`, the melting point was in the range of 91 to 93 °C.
